These results are taken from patent publication US8993575B2, “[1,3,4] oxadiazole derivative and application thereof” (Huazhong University of Science & Technology, priority 2011, dated 2015).

Data set [1] addresses 5HT1A receptor (Rattus norvegicus (Rat), UniProt P19327). Put plainly: 5HT1A receptor binding assay (3H-8-OH-DPAT, rat brain mantle membrane). Particulars: values marked a = IC50. The method, then: Incubation at 37° C. was conducted for 10 min, the weight of the tubes were adjusted using a balance after incubation. […] Centrifugation was conducted and repeated 3 times.
The target of data set [2] is 5HT2A receptor (Rattus norvegicus (Rat), UniProt P14842). Put plainly: 5HT2A receptor assay ([3H]-Ketanserin, rat brain mantle membrane). Particulars: values marked a = IC50. It counts as binding.
The target in data set [3] is D3 receptor (Homo sapiens (Human), UniProt P35462). Put plainly: D3 receptor binding assay ([3H]-Spiperone, HEK-293 cells). The conditions noted are these: test compound final concentration 10 μmol/L. The procedure: After the cells were centrifuged at 1000 rpm for 5 min, the supernatant was discarded, and the cell pellet was collected and stored in a −20° C. fridge for reservation. It was re-suspended with Tris-Cl (pH 7.4) in the assay.
Tris was divided into aliquots by Genetimes Technology Inc.
Competitive binding test for receptors: 20 μl of each of the test compounds and 20 μl of the radioactive ligand together with 160 μl of the receptor proteins were added into the reaction tubes, and the final concentrations of the test compound and the positive drug were all 10 μmol/L. After 50 min of incubation in 30° C. water bath, the tubes were immediately moved to ice bath to terminate the reactions. GF/C glass fiber filter papers were used for rapid sucking filtration on a Millipore cell sample collector, elution buffer (50 mM Tris-HCl, PH 7.4) was applied for 3 ml×3 times, and microwave was applied for 4-5 min for drying. The filter papers were moved into 0.5 ml centrifuge tubes, and 500 μl of lipid-soluble scintillation solution was added. The tubes were allowed to stand still for over 30 min in dark, and the intensities of radioactivity were measured by a counter.

Data set [4] concerns the target 5HT2C (Rattus norvegicus (Rat), UniProt P08909). The data set can be described thus: 5HT2C receptor binding assay ([3H]-mesulergine, rat brain mantle membrane). The conditions noted are these: test compound final concentration 10^-5 M. The method, then: Incubation at 37° C. was conducted for 10 min, the weight of the tubes were adjusted using a balance after the incubation. […] Centrifugation was conducted (repeated 3 times).

Data set [5] concerns MK-801 high activity mice. Put plainly: MK-801 induced high activity in mice. It counts as in vivo. The conditions noted are these: for Total moving distance: MK-801 high activity mice, within 90 min; for ED50: Mus musculus, po, read-out: MK-801 induced high activity ED50; for improvement of MK-801 induced high activity (in words): compared to the model group. The method, then: Ascorbic acid was provided by Sinopharm Chemical Reagent Co. Ltd.
MK-801 was produced by Sigma Company, USA; the formulation method: 0.1% vitamin C was used to formulate a 1 mg/ml solution.
Tween 80, with the concentration of 10%.
Mice with qualified body weight were selected, and randomly divided into blank group, model group, positive control group (risperidone group) and drug group. […] 1 H after the administration, 0.1% of ascorbic acid was intraperitoneally injected to the blank group at 0.1 ml/10 g; and the model group, the positive control group (30 min) and the drug group were intraperitoneally injected the MK-801 solution at 0.1 mg/kg. Subsequently, the spontaneous activities of the mice of each group in 90 min were measured.

Data set [6] in a line: Catalepsy assay in mice. The class given is in vivo. The conditions noted are these: both sexes, Kunming (KM), mouse, in vivo; po, mice. The method, then: (§1) The durations for the mice to maintain the posture with the two forepaws on the bars were recorded, and 30 s of spasticity without moving was considered as the positive response. In the case the forepaws of the mice were not put down persistently, the observation was terminated at 60 s. The numbers of animals with positive response in each of the compound dosage groups were counted.

The subject of data set [7] is KM mice (catalepsy). Put plainly: Catalepsy assay in mice. The class given is in vivo. The method, then: as §1
A short description of data set [8]: in vivo. The conditions noted are these: both sexes, mouse, in vivo; po, single intragastric administration in mice; read-out: LD50. The procedure:
(§2) KM mice (half male and half female) were randomly divided into several groups (with 2-5 mice in each group), which were respectively the 2000 mg/kg groups for each compound, and the solvent group. 0.2 ml/10 g were administered intragastrically. The death of the animals in 3 days were observed. (In the case 3 or more animals survived in 3 days without notable abnormity in their life states, the observation was continued until the assay was completed in 7 days. In the case 3 or more animals died in 3 days, the median lethal dose method was used to determine the LD50).
(§3) KM mice (half male and half female) were randomly divided into several groups (with 4 mice in each group), which were respectively the 1500 mg/kg, 1000 mg/kg, 500 mg/kg groups for each compound, and the solvent group. 0.2 ml/10 g were administered intragastrically, and the death of the animals in 1-3 days were observed.

For data set [9], the system named is four receptors (D2, D3, 5-HT1A and 5-HT2A). The data set can be described thus: In vitro receptor binding assays, summary over four receptors. Particulars: in vitro assay.
In data set [10] the test system is apomorphine induced clambering of mice. The data set can be described thus: Apomorphine induced clambering assay of mice. The conditions noted are these: for ED50: Mus musculus, po, read-out: apomorphine induced clambering ED50; for improvement of apomorphine induced clambering symptoms (in words): compared to the model group.
Experimental: Apomorphine provided by Sigma Company was dissolved in 0.9% NaCl (containing 0.1% vitamin C) before use, and was freshly formulated before use.
Instruments: self-made clambering cage, chronograph.
After 5 min of adaptation, the behaviors of the mice at 10-11, 20-21, 30-31 min after the injection of apomorphine were observed.
Data set [11] has as its target D2 receptor (Rattus norvegicus (Rat), UniProt P61169). Put plainly: D2 receptor binding assay (3H-Spiperone, rat brain striatum membrane). The conditions noted are these: read-out: D2 Inhibition %.
Experimental: Brain striatum was rapidly taken, and 2 brain striatums were combined into a centrifuge tube, to which 3 ml of buffer (0.05 M Tris-HCl buffer, containing NaCl 120 mM, KCl 5 mM, MgCl2 1 mM, CaCl2 1 mM) was added, homogenization was conducted for 3-4 s at level 4 for four times, and then 5 ml of buffer was then added. The weight of the homogenized tubes were adjusted using a balance, and centrifugation was conducted at 12000 r, 4° C. for 20 min. The supernatant was discarded, and 3 ml of buffer was added (0.05 M Tris-HCl buffer, containing NaCl 120 mM, KCl 5 mM, MgCl2 1 mM, CaCl2 1 mM). Vortex mixer was used for blending, and then 5 ml of buffer was added (0.05 M Tris-HCl buffer, containing NaCl 120 mM, KCl 5 mM, MgCl2 1 mM, CaCl2 1 mM). Centrifugation was conducted and repeated 3 times. After the centrifugations, the supernatant was discarded, and the pellets were stored at −80° C. for future use.
Beckman LS-6500 Multi-function Liquid Scintillation Counter was used.
(1) The prepared membrane was first applied with appropriate amount of buffer (0.05 M Tris-HCl buffer, containing NaCl 120 mM, KCl 5 mM, MgCl2 1 mM, CaCl2 1 mM), and homogenizer was used for evenly dispersing. 15 tubes were mixed into a 100 ml container, and appropriate amount of homogenized liquid was added to give 50 ml of membrane suspension, which was reserved for future use.
(2) 100 μL of membrane preparation and 100 μL of buffer (0.05 M Tris-HCl buffer, containing NaCl 120 mM, KCl 5 mM, MgCl2 1 mM, CaCl2 1 mM) were added into each reaction tube.
(3) 100 μL of homogenized liquid was added into the total binding tube (TB), 100 μL of Butaclamol (final concentration 10^−5 M) was added into the non-specific binding tube (NB), and 100 μL of the test compound (final concentration 10^−5 M) was added into the specific binding tube (SB) for each compound.
(5) Each of the reaction tubes was incubated at 37° C. for 20 min. After the reaction was completed, the bound ligands were rapidly filtered under reduced pressure, and the ice-chilled assay buffer was used for adequate washing. The filter was taken out and put into a 3 ml scintillation vial, and 2 ml of toluene scintillation solution was added and blended.
(6) The scintillation vials were put into Liquid Scintillation Counter for counting. Inhibitory rate(1%)=[(Total binding tube cpm−compound cpm)/(Total binding tube cpm−non-specific binding tube cpm)]×100%
Each assay for the compounds was conducted in duplicate.
Data set [12] deals with KM mice. The data set can be described thus: in vivo. Particulars: po, single intragastric administration in mice. The method, then:
as §2, §3

Read-outs that look alike come from different tables or passages of the source. A value given as a limit tells only on which side of the number the result lay.

Sequence of D3 receptor (P35462 whole entry): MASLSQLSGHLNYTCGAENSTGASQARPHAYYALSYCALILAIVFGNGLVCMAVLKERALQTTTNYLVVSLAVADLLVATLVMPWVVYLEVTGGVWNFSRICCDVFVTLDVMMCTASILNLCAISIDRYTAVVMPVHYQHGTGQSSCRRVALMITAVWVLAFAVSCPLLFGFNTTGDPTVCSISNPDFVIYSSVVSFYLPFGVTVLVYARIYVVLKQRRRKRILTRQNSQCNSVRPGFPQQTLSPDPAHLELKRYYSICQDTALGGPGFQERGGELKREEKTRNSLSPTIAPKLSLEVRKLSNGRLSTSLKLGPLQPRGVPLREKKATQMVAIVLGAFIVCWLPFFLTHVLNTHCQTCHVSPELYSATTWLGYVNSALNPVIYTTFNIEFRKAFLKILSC
Sequence of D2 receptor (P61169 whole entry): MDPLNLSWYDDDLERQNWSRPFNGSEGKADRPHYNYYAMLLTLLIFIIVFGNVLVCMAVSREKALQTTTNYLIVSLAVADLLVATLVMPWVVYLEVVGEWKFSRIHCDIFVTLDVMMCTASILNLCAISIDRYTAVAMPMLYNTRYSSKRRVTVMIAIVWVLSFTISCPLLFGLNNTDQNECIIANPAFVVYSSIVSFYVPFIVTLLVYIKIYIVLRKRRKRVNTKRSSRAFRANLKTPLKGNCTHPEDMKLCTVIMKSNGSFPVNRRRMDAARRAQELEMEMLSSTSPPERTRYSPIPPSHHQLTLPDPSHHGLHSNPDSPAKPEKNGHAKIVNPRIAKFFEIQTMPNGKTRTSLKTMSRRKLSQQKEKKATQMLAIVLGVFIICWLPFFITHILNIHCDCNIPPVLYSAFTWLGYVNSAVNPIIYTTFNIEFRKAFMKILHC
Sequence of 5HT1A receptor (P19327 whole entry): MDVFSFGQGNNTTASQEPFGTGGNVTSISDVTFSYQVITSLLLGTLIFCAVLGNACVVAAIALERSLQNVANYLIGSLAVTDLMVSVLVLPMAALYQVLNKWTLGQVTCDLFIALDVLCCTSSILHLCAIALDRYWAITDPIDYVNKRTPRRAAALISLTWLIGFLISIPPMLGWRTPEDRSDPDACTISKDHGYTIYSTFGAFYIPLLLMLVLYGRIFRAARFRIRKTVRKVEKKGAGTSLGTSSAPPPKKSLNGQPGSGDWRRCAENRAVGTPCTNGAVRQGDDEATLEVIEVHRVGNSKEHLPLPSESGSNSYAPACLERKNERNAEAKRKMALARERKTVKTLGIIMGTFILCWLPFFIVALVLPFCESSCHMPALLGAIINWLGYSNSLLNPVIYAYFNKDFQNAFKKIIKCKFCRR
Sequence of 5HT2A receptor (P14842 whole entry): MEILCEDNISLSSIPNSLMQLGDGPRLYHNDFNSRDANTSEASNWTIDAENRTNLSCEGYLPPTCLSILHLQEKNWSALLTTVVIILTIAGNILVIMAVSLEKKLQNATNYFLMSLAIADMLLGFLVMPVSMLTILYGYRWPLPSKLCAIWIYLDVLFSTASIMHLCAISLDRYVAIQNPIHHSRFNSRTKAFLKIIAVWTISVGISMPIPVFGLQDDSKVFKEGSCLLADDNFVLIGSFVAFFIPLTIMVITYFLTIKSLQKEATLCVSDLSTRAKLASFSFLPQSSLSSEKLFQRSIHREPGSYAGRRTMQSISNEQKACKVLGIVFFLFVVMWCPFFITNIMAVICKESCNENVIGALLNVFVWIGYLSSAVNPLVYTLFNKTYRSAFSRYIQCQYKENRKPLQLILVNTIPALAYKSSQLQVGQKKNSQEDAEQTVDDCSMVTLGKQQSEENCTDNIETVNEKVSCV
Sequence of 5HT2C (P08909 33-460 limits assumed): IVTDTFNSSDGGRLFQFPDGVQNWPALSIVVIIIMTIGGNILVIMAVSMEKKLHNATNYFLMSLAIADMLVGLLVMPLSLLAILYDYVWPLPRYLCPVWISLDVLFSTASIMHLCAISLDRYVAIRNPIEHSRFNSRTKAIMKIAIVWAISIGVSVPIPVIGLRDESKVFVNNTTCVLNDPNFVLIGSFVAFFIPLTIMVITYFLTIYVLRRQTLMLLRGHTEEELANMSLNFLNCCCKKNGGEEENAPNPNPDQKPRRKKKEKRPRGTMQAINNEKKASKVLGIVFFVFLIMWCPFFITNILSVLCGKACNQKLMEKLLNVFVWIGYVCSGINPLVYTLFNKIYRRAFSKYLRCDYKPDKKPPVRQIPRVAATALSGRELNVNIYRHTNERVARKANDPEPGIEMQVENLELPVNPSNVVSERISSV

The term IC50 denotes the concentration that gives 50% inhibition. A lower IC50 goes with greater potency in that assay. As usually defined, the inhibition is how much of the control response was suppressed. The ED50 is the dose that gives a 50% effect, or the effect in half of the subjects. A word on the LD50: it is the dose expected to kill half of the subjects tested. As for `Fc1ccc2c(C3CCN(CCCSc4nnc(-c5cccc6ccccc56)o4)CC3)noc2c1` [Compound 12], the results for the IC50 in data set [1] and in [2] were 175 nM and 122 nM, respectively. The inhibition at 10 µM in data set [3] stood at 100%; in [4], 60.6%; in data set [11] it was 98.4%. Further, the Total moving distance came out at 20521.27 ± 7898.02 cm in [5] (10 mg/kg intragastric); 12936.50 ± 3627.24 cm in data set [5] (20 mg/kg intragastric); 16163.49 ± 7769.48 cm in data set [5] (30 mg/kg intragastric); 10298.82 ± 4269.95 cm in data set [5] (50 mg/kg intragastric); 5665.86 ± 1799.20 cm in data set [5] (100 mg/kg intragastric). For the same molecule, the ED50 stood at 15 mg/kg in data set [5] (mice), 300 mg/kg in data set [6] and 4.03 mg/kg in data set [10]. Further, the “improvement of MK-801 induced high activity (in words)” value in data set [5] was “significantly improve”. Moreover, the “EPS at effective dosage (in words)” value in data set [7] (at effective dosage) is given as “did not cause EPS”. The catalepsy/MK-801 in data set [7] (ratio of ED50 values) came to 20.00. For the same molecule, in data set [7] (ratio of ED50 values), the catalepsy/apomorphine stood at 74.44. Moreover, the LD50 in [8] is greater than 2000 mg/kg. In addition, the “affinities to D2, D3, 5-HT1A and 5-HT2A receptors (in words)” value in data set [9] is “relatively stronger affinities”. Besides, in [9], the “affinity compared to aripiprazole (in words)” value is “equivalent to aripiprazole”. Also, the “improvement of apomorphine induced clambering symptoms (in words)” value in data set [10] was “effectively improve”.
With `Cc1nc2n(c(=O)c1CCN1CCC(c3noc4cc(F)ccc34)CC1)CCCC2` [risperidone, reference compound], the results for the ED50 in data set [5] and in data set [10] were 0.01 mg/kg and 0.02 mg/kg, respectively. Besides, in [5], the “improvement of MK-801 induced high activity (in words)” value is given as “significantly improve”. The LD50 in data set [8] and in [12] was 82.1 mg/kg each time. Also, in [10], the “improvement of apomorphine induced clambering symptoms (in words)” value is “effectively improve”.
